From paper PMC3724473 (Biosensors & bioelectronics, 2012)

Tests used:
[1] = target: T1, CotA / bilirubin oxidase (BOD) from Bacillus pumilus (Bacillus pumilus, UniProt A8FAG9); assay: spectrophotometric oxidation at […] nm, Michaelis-Menten fit; assay type: biochemical; settings: optimal pH (assay pH 6.8), 37 °C, McIlvaine citrate-phosphate buffer
[2] = target: T1, CotA / bilirubin oxidase (BOD) from Bacillus pumilus; assay: spectrophotometric at […] nm; assay type: biochemical; settings: optimal pH (assay pH 7.2, 50 mM sodium phosphate), 37 °C

Row | Km [1] [µM] | Km [2] [µM] | SMILES
1 | 822 | – | COc1cccc(OC)c1O [2,6-DMP, 2,6-dimethoxyphenol]
2 | – | 22 | C=CC1=C(C)/C(=C/c2[nH]c(Cc3[nH]c(/C=C4\NC(=O)C(C)=C4C=C)c(C)c3CCC(=O)O)c(CCC(=O)O)c2C)NC1=O [unconjugated bilirubin]
